{
  "source": "patent US20210379063A1",
  "about": "“ORAL AMINODIHYDROPHTHALAZINEDIONE COMPOSITIONS AND THEIR USE IN THE TREATMENT OF NON-VIRAL HEPATITIS” (Immunopharma Plus D.O.O., priority 2018, published 2021)",
  "key": {"porcine stomach (cardia)": {"system": "porcine stomach (cardia)", "details": "10 mM donor solution"}, "[1]": {"system": "liver after introduction of carrageenan", "details": "for ALT, units/l / AST, units/l: carrageenan + Tamerit", "procedure": "The experiments were carried out on 25 male Wistar rats weighing 200-220 g, in accordance with the recommendations of the international ethics committees on the humane treatment of laboratory animals (EU Council Directive 86/609 EEC dated Nov. 24, 1986). […] Its mechanism of action is based on the inhibition of the process of phagocytosis and the activity of lysosomal hydrolases of mononuclear phagocytes. The drug was administered intragastrically through a probe in an aqueous solution at a dose of 10 mg/kg. The choice of time frame (4, 17 hours after surgery) corresponds to the phases of liver regeneration."}, "[2]": {"system": "acute experimental hepatitis, tetrachloromethane (CCL4)", "procedure": "Acute experimental hepatitis that develops with the introduction of tetrachloromethane (CCL4) is a classic model for studying the mechanisms of reparative regeneration of the liver after exposure to various chemical toxicants.\nThe experiments were carried out on male Wistar rats weighing 200-220 g, in accordance with the recommendations of the international ethics committees on the humane treatment of laboratory animals (EU Council Directive 86/609 EEC dated Nov. 24, 1986). Carbon tetrachloride (CCL4), was administered to the animals intraperitoneally once at a dose of 50 mg/kg of body weight. […] The animals were sacrificed on the 3rd, 7th day after the simulation of toxic hepatitis."}, "[3]": {"system": "hepatitis caused by pesticides", "from_the_text": "Clinically, this is manifested by pallor, fatigue, shortness of breath on exertion, hypoxia of the organs, respectively, and of the organism as a whole. The lipid peroxidation that develops at the same time causes tissue damage, and in response, macrophages infiltrate and generate oxygen radicals and pro-inflammatory cytokines (TNF, IL, etc.), thereby contributing their destructive potential to the development of the pathological process."}, "[4]": {"details": "CCl4 3rd day + Tamerit 2 mg/kg intramuscularly"}, "[5]": {"details": "CCl4 7th day + Tamerit 2 mg/kg intramuscularly"}},
  "note": "Like-named read-outs stand apart in the source and are kept apart here.",
  "data": [
    {"smiles": "Nc1cccc2c(=O)[n-][nH]c(=O)c12.[Na+]", "note": "[Tamerit, aminodihydrophthalazinedione sodium]", "values": [
      {"measurement": "concentration in receptor compartment, Tamerit stomach, AVG", "setting": "porcine stomach (cardia); 0 min", "result": 0, "unit": "ng/mL"},
      {"measurement": "concentration in receptor compartment, Tamerit stomach", "setting": "porcine stomach (cardia); 0 min, single chambers", "result": 0, "unit": "ng/mL"},
      {"measurement": "concentration in receptor compartment, Tamerit stomach, AVG", "setting": "porcine stomach (cardia); 15 min", "result": 50, "unit": "ng/mL"},
      {"measurement": "concentration in receptor compartment, Tamerit stomach, AVG", "setting": "porcine stomach (cardia); 30 min", "result": 41, "unit": "ng/mL"},
      {"measurement": "concentration in receptor compartment, Tamerit stomach, AVG", "setting": "porcine stomach (cardia); 45 min", "result": 69, "unit": "ng/mL"},
      {"measurement": "concentration in receptor compartment, Tamerit stomach, AVG", "setting": "porcine stomach (cardia); 90 min", "result": 85, "unit": "ng/mL"},
      {"measurement": "concentration in receptor compartment, Tamerit stomach, AVG", "setting": "porcine stomach (cardia); 120 min", "result": 104, "unit": "ng/mL"},
      {"measurement": "Mitotic index, %", "setting": "[1]; Carrageenan 4 hours + Tamerit", "result": "0.65 ± 0.25", "unit": "%"},
      {"measurement": "Nuclear cytoplasmic index", "setting": "[1]; Carrageenan 4 hours + Tamerit", "result": "0.36 ± 0.01"},
      {"measurement": "Number of binuclear cells, %", "setting": "[1]; Carrageenan 4 hours + Tamerit", "result": "25.0 ± 3.58", "unit": "%"},
      {"measurement": "Mitotic index, %", "setting": "[1]; Carrageenan 17 hours + Tamerit", "result": "0.48 ± 0.12", "unit": "%"},
      {"measurement": "Nuclear cytoplasmic index", "setting": "[1]; Carrageenan 17 hours + Tamerit", "result": "0.35 ± 0.02"},
      {"measurement": "Number of binuclear cells, %", "setting": "[1]; Carrageenan 17 hours + Tamerit", "result": "29.2 ± 4.18", "unit": "%"},
      {"measurement": "activity of aminotransferases", "setting": "[1]; after carrageenan", "result": "completely restores the activity of aminotransferases to the parameters of healthy animals"},
      {"measurement": "ALT, units/l", "setting": "[1]; 4 hours", "result": "40.2 ± 4.0", "unit": "units/l"},
      {"measurement": "AST, units/l", "setting": "[1]; 4 hours", "result": "85.4 ± 8.0", "unit": "units/l"},
      {"measurement": "ALT, units/l", "setting": "[1]; 17 hours", "result": "42.2 ± 3.5", "unit": "units/l"},
      {"measurement": "AST, units/l", "setting": "[1]; 17 hours", "result": "83.5 ± 4.5", "unit": "units/l"},
      {"measurement": "ALT, U/L", "setting": "[2]; [4]", "result": "9.1 ± 1.6", "unit": "U/L"},
      {"measurement": "AST, U/L", "setting": "[2]; [4]", "result": "10.0 ± 2.0", "unit": "U/L"},
      {"measurement": "BCL, quant", "setting": "[2]; [4]", "result": "186.0 ± 7.0", "unit": "quant"},
      {"measurement": "ALT, U/L", "setting": "[2]; [5]", "result": "7.12 ± 0.20", "unit": "U/L"},
      {"measurement": "AST, U/L", "setting": "[2]; [5]", "result": "8.53 ± 0.13", "unit": "U/L"},
      {"measurement": "BCL, quant", "setting": "[2]; [5]", "result": "171 ± 18", "unit": "quant"},
      {"measurement": "effect on inflammatory reaction in toxic hepatitis", "setting": "[2]; early stages of toxic hepatitis by tetrachloromethane", "result": "reduces the severity of the inflammatory reaction"},
      {"measurement": "AST and ALT", "setting": "[3]; after the end of treatment, AST-80, ALT-98 before", "result": "within normal limits"},
      {"measurement": "Hemoglobin", "setting": "[3]; at discharge after enteric-coated 100 mg tablets, 89 before", "result": 120},
      {"measurement": "patient's condition", "setting": "[3]; third day from the start of treatment", "result": "improved"}
    ]}
  ]
}
